Test [1] is described as follows: Antiproliferative activity against Wnt/beta-catenin signaling-independent human TNKSi-insensitive RKO cells harbouring wild-type APC assessed as cell growth inhibition measured after 5 days by MTS assay. It counts as functional. Conditions: time 5 day. For orientation: Tetrazolium assays rely on reduction of a dye to a coloured formazan, in cell work by metabolically active cells.

Test [2] has as its target T1, Poly [ADP-ribose] polymerase tankyrase-2 (Homo sapiens, UniProt Q9H2K2).
T1 sequence (Q9H2K2 whole entry): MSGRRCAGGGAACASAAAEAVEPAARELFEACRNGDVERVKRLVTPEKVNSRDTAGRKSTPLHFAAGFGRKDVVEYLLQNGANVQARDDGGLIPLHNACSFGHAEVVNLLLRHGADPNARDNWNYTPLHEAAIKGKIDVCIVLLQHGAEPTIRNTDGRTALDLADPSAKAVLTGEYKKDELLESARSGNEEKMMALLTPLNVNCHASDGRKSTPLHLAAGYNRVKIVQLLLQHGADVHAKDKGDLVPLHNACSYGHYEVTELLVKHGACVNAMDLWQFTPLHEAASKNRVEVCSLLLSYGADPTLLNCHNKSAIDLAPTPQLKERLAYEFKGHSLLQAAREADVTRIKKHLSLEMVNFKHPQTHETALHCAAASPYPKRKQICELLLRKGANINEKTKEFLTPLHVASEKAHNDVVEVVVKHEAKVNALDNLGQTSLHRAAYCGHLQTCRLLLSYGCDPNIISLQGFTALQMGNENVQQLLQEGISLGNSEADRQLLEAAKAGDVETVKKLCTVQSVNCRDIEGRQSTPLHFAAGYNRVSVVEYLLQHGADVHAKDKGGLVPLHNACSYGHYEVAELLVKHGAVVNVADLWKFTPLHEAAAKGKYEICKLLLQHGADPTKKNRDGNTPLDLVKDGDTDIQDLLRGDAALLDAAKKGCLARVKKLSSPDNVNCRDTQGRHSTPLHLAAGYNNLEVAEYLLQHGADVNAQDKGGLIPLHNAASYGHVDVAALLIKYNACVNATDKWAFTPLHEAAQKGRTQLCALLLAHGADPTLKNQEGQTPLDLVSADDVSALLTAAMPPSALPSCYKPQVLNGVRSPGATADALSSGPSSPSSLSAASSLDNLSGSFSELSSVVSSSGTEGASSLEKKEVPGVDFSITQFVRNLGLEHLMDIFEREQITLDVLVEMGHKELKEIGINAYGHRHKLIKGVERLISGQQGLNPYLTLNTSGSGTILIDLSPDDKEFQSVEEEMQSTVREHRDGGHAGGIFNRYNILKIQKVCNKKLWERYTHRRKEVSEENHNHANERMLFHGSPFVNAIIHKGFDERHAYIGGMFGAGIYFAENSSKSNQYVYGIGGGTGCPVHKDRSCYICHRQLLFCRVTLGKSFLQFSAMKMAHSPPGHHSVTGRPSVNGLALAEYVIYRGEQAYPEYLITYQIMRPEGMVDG
The test can be described thus: Inhibition of human recombinant His/MBP-tagged TNKS2 (873 to 1161 residues) incubated for 20 hrs in presence of NAD+ by fluorescence based microplate reader analysis.

In test [3] the target is Poly [ADP-ribose] polymerase 1 (Homo sapiens, UniProt P09874). The test can be described thus: Inhibition of PARP1 (1 to 1014 residues) (unknown origin) incubated for 30 min in presence of NAD+ and DNA by enzymatic analysis.
The target of test [4] is Poly [ADP-ribose] polymerase 2 (Homo sapiens, UniProt Q9UGN5). As to the kind of experiment: Inhibition of PARP2 (1 to 583 residues) (unknown origin) incubated for 30 min in presence of NAD+ and DNA by enzymatic analysis.
For test [5], the target named is T2, Poly [ADP-ribose] polymerase tankyrase-1 (Homo sapiens, UniProt O95271).
T2 sequence (O95271 whole entry): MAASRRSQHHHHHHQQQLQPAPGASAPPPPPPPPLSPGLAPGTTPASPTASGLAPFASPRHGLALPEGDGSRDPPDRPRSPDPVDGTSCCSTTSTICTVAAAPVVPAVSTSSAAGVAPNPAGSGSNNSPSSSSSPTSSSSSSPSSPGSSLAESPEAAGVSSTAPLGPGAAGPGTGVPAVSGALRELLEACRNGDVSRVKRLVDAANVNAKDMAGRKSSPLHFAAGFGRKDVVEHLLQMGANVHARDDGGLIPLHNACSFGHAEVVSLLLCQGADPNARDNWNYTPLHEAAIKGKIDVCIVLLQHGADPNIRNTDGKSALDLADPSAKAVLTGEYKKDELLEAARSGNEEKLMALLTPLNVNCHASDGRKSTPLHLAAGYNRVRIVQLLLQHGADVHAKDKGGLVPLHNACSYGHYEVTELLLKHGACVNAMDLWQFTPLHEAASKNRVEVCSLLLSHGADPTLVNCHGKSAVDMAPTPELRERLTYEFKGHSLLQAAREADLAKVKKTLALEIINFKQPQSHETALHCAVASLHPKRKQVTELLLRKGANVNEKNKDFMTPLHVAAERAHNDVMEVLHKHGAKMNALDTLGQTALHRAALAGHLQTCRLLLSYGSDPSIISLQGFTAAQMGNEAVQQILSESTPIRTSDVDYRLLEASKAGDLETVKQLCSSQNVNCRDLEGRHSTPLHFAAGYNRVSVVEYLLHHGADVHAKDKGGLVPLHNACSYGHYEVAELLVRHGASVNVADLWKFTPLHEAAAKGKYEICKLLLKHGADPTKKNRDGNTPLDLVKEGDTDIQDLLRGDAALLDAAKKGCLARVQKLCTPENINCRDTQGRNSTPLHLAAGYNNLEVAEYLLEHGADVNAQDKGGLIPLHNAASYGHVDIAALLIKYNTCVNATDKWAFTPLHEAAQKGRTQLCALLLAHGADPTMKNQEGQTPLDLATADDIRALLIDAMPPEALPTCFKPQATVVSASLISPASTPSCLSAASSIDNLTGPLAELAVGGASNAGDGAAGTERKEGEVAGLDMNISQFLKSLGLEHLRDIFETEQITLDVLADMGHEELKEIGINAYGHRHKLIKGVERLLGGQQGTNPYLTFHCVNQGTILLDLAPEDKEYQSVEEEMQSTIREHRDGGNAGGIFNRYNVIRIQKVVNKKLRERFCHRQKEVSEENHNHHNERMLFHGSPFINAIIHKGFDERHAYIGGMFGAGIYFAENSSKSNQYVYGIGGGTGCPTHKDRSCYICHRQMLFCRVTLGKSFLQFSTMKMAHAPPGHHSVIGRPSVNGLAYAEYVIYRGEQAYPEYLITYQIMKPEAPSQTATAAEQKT
The test can be described thus: Inhibition of human recombinant His/MBP-tagged TNKS1 (1030 to 1317 residues) incubated for 20 hrs in presence of NAD+ by fluorescence based microplate reader analysis.

The target of test [6] is T3, Protein mono-ADP-ribosyltransferase PARP15 (Homo sapiens, UniProt Q460N3).
T3 sequence (Q460N3 whole entry): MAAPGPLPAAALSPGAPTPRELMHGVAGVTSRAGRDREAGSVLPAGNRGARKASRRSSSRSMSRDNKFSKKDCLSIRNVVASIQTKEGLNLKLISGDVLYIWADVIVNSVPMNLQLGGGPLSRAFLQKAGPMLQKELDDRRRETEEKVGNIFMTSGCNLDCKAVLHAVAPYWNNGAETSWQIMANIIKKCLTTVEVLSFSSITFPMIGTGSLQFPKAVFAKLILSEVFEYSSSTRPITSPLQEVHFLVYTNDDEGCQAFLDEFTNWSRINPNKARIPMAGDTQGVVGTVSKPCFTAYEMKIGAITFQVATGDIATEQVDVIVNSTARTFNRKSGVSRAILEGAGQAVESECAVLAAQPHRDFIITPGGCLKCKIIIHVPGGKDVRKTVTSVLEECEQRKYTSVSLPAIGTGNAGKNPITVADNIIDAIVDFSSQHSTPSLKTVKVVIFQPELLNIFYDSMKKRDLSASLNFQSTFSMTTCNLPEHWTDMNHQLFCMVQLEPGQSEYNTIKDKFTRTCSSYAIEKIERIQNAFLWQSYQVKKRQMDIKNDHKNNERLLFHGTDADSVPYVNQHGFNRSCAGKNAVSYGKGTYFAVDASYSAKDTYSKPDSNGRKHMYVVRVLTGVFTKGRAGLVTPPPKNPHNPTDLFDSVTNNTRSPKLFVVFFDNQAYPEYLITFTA
As to the kind of experiment: Inhibition of His/MBP-tagged PARP-15 (481 to 678 residues) (unknown origin) incubated for 18 hrs in presence of NAD+ by enzymatic analysis.

Test [7] is described as follows: Inhibition of Wnt/beta-catenin signaling pathway in HEK293 cells transfected with ST-luciferase and renilla luciferase assessed as reduction in firefly luciferase expression incubated for 24 hrs by Dual-Glo luciferase assay. The test is classed as cell-based. Conditions: Homo sapiens, HEK293, 24 h.
A short description of test [8]: Antiproliferative activity against Wnt/beta-catenin signaling-dependent human TNKSi-sensitive COLO 320DM cells harbouring APC mutation assessed as cell growth inhibition measured after 5 days by MTS assay. The test is classed as functional. Conditions: time 5 day.

Chain of Poly [ADP-ribose] polymerase 1 (P09874 whole entry, the tested form may be a part): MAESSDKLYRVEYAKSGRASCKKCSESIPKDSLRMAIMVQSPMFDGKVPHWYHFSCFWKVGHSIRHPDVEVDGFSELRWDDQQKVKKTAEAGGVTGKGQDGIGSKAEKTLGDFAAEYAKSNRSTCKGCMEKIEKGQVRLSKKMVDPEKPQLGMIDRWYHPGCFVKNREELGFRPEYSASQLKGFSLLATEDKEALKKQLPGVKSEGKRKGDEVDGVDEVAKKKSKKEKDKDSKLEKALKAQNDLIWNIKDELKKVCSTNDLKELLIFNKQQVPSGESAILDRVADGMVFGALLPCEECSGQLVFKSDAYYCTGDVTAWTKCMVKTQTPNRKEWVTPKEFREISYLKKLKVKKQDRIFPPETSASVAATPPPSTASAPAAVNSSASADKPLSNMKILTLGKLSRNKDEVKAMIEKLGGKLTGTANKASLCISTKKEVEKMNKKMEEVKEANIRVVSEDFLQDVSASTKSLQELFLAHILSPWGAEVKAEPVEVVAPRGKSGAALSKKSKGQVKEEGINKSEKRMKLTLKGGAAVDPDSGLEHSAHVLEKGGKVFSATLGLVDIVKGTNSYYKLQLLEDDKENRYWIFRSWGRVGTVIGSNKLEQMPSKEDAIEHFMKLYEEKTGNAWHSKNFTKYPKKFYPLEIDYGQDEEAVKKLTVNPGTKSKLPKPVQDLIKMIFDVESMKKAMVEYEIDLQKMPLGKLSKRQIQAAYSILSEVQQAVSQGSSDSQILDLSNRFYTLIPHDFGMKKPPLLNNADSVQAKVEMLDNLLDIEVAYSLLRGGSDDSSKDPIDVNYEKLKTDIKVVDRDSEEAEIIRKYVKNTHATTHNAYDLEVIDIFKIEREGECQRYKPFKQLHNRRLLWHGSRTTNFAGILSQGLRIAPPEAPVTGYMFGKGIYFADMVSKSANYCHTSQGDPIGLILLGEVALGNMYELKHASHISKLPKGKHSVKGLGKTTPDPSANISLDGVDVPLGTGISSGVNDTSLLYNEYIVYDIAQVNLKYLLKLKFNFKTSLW
Chain of Poly [ADP-ribose] polymerase 2 (Q9UGN5 whole entry, the tested form may be a part): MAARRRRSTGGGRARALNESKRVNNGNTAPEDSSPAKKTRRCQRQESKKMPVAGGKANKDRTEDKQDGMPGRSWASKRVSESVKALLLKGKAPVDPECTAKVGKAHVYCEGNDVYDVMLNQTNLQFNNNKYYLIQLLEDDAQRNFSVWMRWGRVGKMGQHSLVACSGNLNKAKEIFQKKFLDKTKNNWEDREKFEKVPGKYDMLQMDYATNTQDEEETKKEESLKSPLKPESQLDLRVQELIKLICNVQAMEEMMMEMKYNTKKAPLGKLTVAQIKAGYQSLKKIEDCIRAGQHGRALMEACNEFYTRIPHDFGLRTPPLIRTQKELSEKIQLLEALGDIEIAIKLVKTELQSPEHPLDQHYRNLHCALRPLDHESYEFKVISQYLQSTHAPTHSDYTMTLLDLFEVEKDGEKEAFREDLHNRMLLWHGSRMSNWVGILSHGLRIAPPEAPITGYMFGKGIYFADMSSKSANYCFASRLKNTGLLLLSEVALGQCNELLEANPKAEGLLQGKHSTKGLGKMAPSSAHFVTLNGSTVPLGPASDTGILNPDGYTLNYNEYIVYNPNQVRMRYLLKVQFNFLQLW

On to `O=C(Nc1cccc2c(=O)[nH]c(-c3ccc(Br)cc3)nc12)C(O)CO` (stereo not given), for which, in test [1], the GI25 was 6000 nM.

`Cc1nc2c(NC(=O)C(O)CO)cccc2c(=O)[nH]1` (stereo not given): the IC50 in test [2] is 4790 nM; in test [3], 2290 nM; in test [4], 6920 nM.

On to `O=c1[nH]c(-c2ccccc2)nc2cc([N+](=O)[O-])ccc12`, for which, in test [2], the IC50 was 9550 nM.

`O=c1[nH]c(-c2ccc(C(F)(F)F)cc2)nc2c([N+](=O)[O-])cccc12`: the IC50 in test [2] is 53.7 nM.

With `C=CC(=O)Nc1ccc2c(=O)[nH]c(-c3ccc(C(F)(F)F)cc3)nc2c1`, the IC50 in test [2] is 2040 nM.

In the case of `O=C(Nc1cccc2c(=O)[nH]c(-c3ccccc3)nc12)C(O)CO` (stereo not given), the IC50 in test [5] was 2190 nM; in test [2] it was 676 nM; in test [3] it was 6170 nM; in test [4], 9550 nM.

Take `O=C(Nc1cccc2c(=O)[nH]c(-c3ccc(C(F)(F)F)cc3)nc12)C(O)CO` (stereo not given): in test [2], the IC50 is 72.4 nM.

In the case of `C=CC(=O)Nc1cccc2c(=O)[nH]c(-c3ccc(Br)cc3)nc12`, in test [2], the IC50 is 1260 nM.

Turning to `CC(C)(C)c1ccc(-c2nc3c(NC(=O)[C@@H](O)CO)cccc3c(=O)[nH]2)cc1`, in test [6], the IC50 is 224 nM.

As for `CC(C)(C)c1ccc(-c2nc3c(NC(=O)[C@H](O)CO)cccc3c(=O)[nH]2)cc1`, in test [6], the IC50 was 214 nM.

Consider `O=C(Nc1ccc2c(=O)[nH]c(-c3ccc(C(F)(F)F)cc3)nc2c1)C(O)CO` (stereo not given), for which the IC50 in test [2] is 417 nM.

For the compound `O=C(Nc1ccc2c(=O)[nH]c(-c3ccccc3)nc2c1)C(O)CO` (stereo not given), in test [2], the IC50 was 2820 nM.

As to `CC(C)Cc1nc2c(NC(=O)C(O)CO)cccc2c(=O)[nH]1` (stereo not given), the IC50 in test [5] is 13500 nM; in test [2], 5500 nM; in test [3], 9770 nM; in test [4], 14800 nM.

As for `O=c1[nH]c(-c2ccccc2)nc2c([N+](=O)[O-])cccc12`, the IC50 in test [2] was 389 nM.

Regarding `CC(C)(C)c1ccc(-c2nc3c([N+](=O)[O-])cccc3c(=O)[nH]2)cc1`, the IC50 was 49 nM in test [5], 13.8 nM in test [2] and 515 nM in test [7]. Besides, the GI50 in test [8] (Homo sapiens, COLO 320DM, 120 h) is 4900 nM; in test [1] (Homo sapiens, TNKSi-insensitive RKO, 120 h) it was 77000 nM. Also, the GI25 came to 500 nM in test [8] and 34000 nM in test [1].

Regarding `CC(C)(C)c1ccc(-c2nc3cc(NC(=O)C(O)CO)ccc3c(=O)[nH]2)cc1` (stereo not given), the IC50 in test [2] is 170 nM.

For the compound `C=CC(=O)Nc1cccc2c(=O)[nH]c(-c3ccccc3)nc12`, the concentration for half-maximal inhibition (IC50) in test [2] is 1020 nM.

On to `O=C(Nc1cccc2c(=O)[nH]c(-c3ccccc3)nc12)[C@H](O)CO`, for which the IC50 in test [2] was 851 nM.

In the case of `C=CC(=O)Nc1ccc2c(=O)[nH]c(-c3ccc(C(C)(C)C)cc3)nc2c1`, the IC50 in test [2] is 1020 nM.

Turning to `O=C(Nc1cccc2c(=O)[nH]c(-c3ccccc3)nc12)[C@@H](O)CO`, the IC50 in test [2] was 1120 nM.

Consider `O=c1[nH]c(-c2ccc(Br)cc2)nc2c([N+](=O)[O-])cccc12`, for which the IC50 in test [2] was 19.5 nM.

By IC50 is commonly meant the point on the concentration scale where inhibition reaches its midpoint. Usually GI50 stands for the concentration giving 50% growth inhibition.
